According to patent publication US10905671B2, “Method of using omega 3 fatty acids to treat diseases which involve damage to the nervous system” (priority 2013, dated 2021):

Legend:
scleritis = assay: Patients with scleritis (Example 3); assay type: in vivo, human; settings: two patients; 10 mg
[1] = tested on: moderate thyroid eye disease; assay: Patients with moderate thyroid eye disease (Example 5); assay type: in vivo, human; settings: 3 patients; 10 mg
Method: The invention was used in 3 patients with moderate thyroid eye disease. The patients were controlled with 10 mg of prednisolone or with 7.5 g to 10 g of EPA and DHA and having a AA/EPA ratio between 1 to 1.5.

Q: With `C[C@]12C=CC(=O)C=C1CC[C@@H]1[C@@H]2[C@@H](O)C[C@@]2(C)[C@H]1CC[C@]2(O)C(=O)CO` [prednisolone] as the compound, how does the control of scleritis (scleritis) read?
A: controlled

Q: And the side effects (scleritis)?
A: had to stop due to the side effects

Q: And the “control of thyroid eye disease” value [1]?
A: controlled
